Measured values taken from ChEMBL document CHEMBL5500344, “Design, synthesis and biological evaluation of matrine contains benzimidazole derivatives as dual TOPOI and PARP inhibitors for cancer therapy” (Eur J Med Chem, 2024).
pIC50: −log10 of the molar value.

Tests used:
HepG2 = test: Antiproliferative activity against human HepG2 cells assessed as inhibition of cell growth incubated for 48 hrs by MTT assay; format: functional, cell-based; conditions: HepG2, 48 h
A549 = test: Antiproliferative activity against human A549 cells assessed as inhibition of cell growth incubated for 48 hrs by MTT assay; format: functional, cell-based; conditions: A549, 48 h
HGC-27 = test: Antiproliferative activity against human HGC-27 cells assessed as inhibition of cell growth incubated for 48 hrs by MTT assay; format: functional, cell-based; conditions: HGC-27, 48 h, read-out: IC50
HeLa = test: Antiproliferative activity against human HeLa cells assessed as inhibition of cell growth incubated for 48 hrs by MTT assay; format: functional, cell-based
L02 = test: Antiproliferative activity against human L02 cells assessed as inhibition of cell growth incubated for 48 hrs by MTT assay; format: functional, cell-based; conditions: L02, 48 h
[1] = biological target: Poly [ADP-ribose] polymerase 1 (Homo sapiens, UniProt P09874); test: Inhibition of PARP-1 (unknown origin) incubated for 70 mins by HT universal chemiluminescent assay
Sequence of Poly [ADP-ribose] polymerase 1 (P09874 whole entry): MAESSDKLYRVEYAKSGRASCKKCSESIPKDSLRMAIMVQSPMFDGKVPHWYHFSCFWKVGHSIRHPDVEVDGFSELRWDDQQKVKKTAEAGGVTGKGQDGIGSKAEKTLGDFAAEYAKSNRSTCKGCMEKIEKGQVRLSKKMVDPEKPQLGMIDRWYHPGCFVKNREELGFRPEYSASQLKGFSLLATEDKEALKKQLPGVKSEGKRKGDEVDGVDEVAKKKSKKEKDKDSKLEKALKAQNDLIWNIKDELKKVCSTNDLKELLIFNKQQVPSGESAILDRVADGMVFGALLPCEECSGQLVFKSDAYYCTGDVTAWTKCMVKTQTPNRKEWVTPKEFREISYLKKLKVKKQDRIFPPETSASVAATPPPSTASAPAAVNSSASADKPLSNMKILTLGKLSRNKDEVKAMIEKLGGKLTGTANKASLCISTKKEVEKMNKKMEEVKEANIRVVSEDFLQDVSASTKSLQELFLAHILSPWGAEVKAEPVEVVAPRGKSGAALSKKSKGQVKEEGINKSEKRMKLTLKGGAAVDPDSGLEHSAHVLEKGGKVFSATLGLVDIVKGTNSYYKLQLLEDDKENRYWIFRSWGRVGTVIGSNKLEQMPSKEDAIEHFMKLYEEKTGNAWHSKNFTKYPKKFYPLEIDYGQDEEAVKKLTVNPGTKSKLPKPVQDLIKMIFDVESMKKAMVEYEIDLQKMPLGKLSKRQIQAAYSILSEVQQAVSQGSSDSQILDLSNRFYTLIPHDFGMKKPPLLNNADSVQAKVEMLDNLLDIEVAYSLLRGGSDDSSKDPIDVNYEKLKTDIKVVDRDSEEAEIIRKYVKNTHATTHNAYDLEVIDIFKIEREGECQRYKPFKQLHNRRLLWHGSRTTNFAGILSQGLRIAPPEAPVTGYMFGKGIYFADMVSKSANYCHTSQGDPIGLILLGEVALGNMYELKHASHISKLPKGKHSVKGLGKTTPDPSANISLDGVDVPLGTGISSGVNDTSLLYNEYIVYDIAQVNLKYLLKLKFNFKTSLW

| Compound | pIC50 (HepG2) | pIC50 (A549) | pIC50 (HGC-27) | pIC50 (HeLa) | pIC50 (L02) | pIC50 [1] |
| --- | --- | --- | --- | --- | --- | --- |
| Cc1ccc(S(=O)(=O)N2C[C@@H]3CCCN4CCC[C@@H]([C@H]34)[C@H]2CCCc2nc3ccccc3n2S(=O)(=O)c2ccc(C)cc2)cc1 | 4.87 | 4.16 | 4.74 | 4.30 |  |  |
| Cn1c(CCCNC(=O)CCC[C@@H]2[C@H]3CCCN4CCC[C@@H](CN2C(=O)OCC2c5ccccc5-c5ccccc52)[C@@H]34)nc2ccc([N+](=O)[O-])cc21 | 4.62 | 4.69 | 4.77 | 4.81 |  |  |
| O=S(=O)(c1ccc(Cl)cc1)N1C[C@@H]2CCCN3CCC[C@@H]([C@H]23)[C@H]1CCCc1nc2ccc(Cl)cc2n1S(=O)(=O)c1ccc(Cl)cc1 | 4.95 | 4.34 | 4.92 | 4.27 |  |  |
| O=S(=O)(c1ccc(Cl)cc1)N1C[C@@H]2CCCN3CCC[C@@H]([C@H]23)[C@H]1CCCc1nc2cc(Cl)ccc2n1S(=O)(=O)c1ccc(Cl)cc1 | 4.67 | 4.17 | 4.74 | < 4.10 |  |  |
| CC(C)(C)c1ccc(S(=O)(=O)N2C[C@@H]3CCCN4CCC[C@@H]([C@H]34)[C@H]2CCCc2nc3ccccc3n2S(=O)(=O)c2ccc(C(C)(C)C)cc2)cc1 | 4.94 | 4.22 | 4.65 | 4.26 |  |  |
| CC(C)(C)c1ccc(S(=O)(=O)N2C[C@@H]3CCCN4CCC[C@@H]([C@H]34)[C@H]2CCCc2nc3cc([N+](=O)[O-])ccc3n2S(=O)(=O)c2ccc(C(C)(C)C)cc2)cc1 | 4.30 | 4.20 | 4.35 | 4.18 |  |  |
| O=S(=O)(c1ccc(Br)cc1)N1C[C@@H]2CCCN3CCC[C@@H]([C@H]23)[C@H]1CCCc1nc2ccc(Cl)cc2n1S(=O)(=O)c1ccc(Br)cc1 | 4.49 | 4.17 | 4.53 | 4.15 |  |  |
| Cc1ccc(S(=O)(=O)N2C[C@@H]3CCCN4CCC[C@@H]([C@H]34)[C@H]2CCCc2nc3cc([N+](=O)[O-])ccc3n2S(=O)(=O)c2ccc(C)cc2)cc1 | 4.28 | 4.27 | 4.32 | < 4.10 |  |  |
| CC(C)(C)c1ccc(S(=O)(=O)N2C[C@@H]3CCCN4CCC[C@@H]([C@H]34)[C@H]2CCCc2nc3ccc([N+](=O)[O-])cc3n2S(=O)(=O)c2ccc(C(C)(C)C)cc2)cc1 | 4.28 | 4.16 | 4.32 | 4.15 |  |  |
| O=C(OCC1c2ccccc2-c2ccccc21)N1C[C@@H]2CCCN3CCC[C@@H]([C@H]23)[C@H]1CCCc1nc2ccc(C(F)(F)F)cc2[nH]1 | 4.56 | 4.47 | 4.59 | 4.59 |  |  |
| Cn1c(CCC[C@@H]2[C@H]3CCCN4CCC[C@@H](CN2C(=O)OCC2c5ccccc5-c5ccccc52)[C@@H]34)nc2ccc([N+](=O)[O-])cc21 | 4.86 | 4.51 | 4.95 | 4.62 |  |  |
| Cc1ccc(S(=O)(=O)N2C[C@@H]3CCCN4CCC[C@@H]([C@H]34)[C@H]2CCCc2nc3ccc([N+](=O)[O-])cc3n2S(=O)(=O)c2ccc(C)cc2)cc1 | 4.40 | 4.13 | 4.40 | 4.14 |  |  |
| O=C(OCC1c2ccccc2-c2ccccc21)N1C[C@@H]2CCCN3CCC[C@@H]([C@H]23)[C@H]1CCCc1nc2ccccc2n1C(=O)OCC1c2ccccc2-c2ccccc21 | 4.78 | 4.62 | 4.86 | 4.78 |  |  |
| O=S(=O)(c1ccc(C(F)(F)F)cc1)N1C[C@@H]2CCCN3CCC[C@@H]([C@H]23)[C@H]1CCCc1nc2ccc(Cl)cc2n1S(=O)(=O)c1ccc(C(F)(F)F)cc1 | < 4.10 | < 4.10 | 4.15 | < 4.10 |  |  |
| O=S(=O)(c1ccc(C(F)(F)F)cc1)N1C[C@@H]2CCCN3CCC[C@@H]([C@H]23)[C@H]1CCCc1nc2cc(Cl)ccc2n1S(=O)(=O)c1ccc(C(F)(F)F)cc1 | 5.04 | 4.24 | 5.06 | 4.20 | < 4.19 | 4.84 |
| O=C(OCC1c2ccccc2-c2ccccc21)N1C[C@@H]2CCCN3CCC[C@@H]([C@H]23)[C@H]1CCCc1nc2ccc(Br)cc2[nH]1 | 4.94 | 4.68 | 4.98 | 4.82 |  |  |
| CC(C)(C)c1ccc(S(=O)(=O)N2C[C@@H]3CCCN4CCC[C@@H]([C@H]34)[C@H]2CCCc2nc3cc(Cl)ccc3n2S(=O)(=O)c2ccc(C(C)(C)C)cc2)cc1 | < 4.10 | 4.11 | 4.23 | 4.18 |  |  |
| O=C(CCC[C@@H]1[C@H]2CCCN3CCC[C@@H](CN1C(=O)OCC1c4ccccc4-c4ccccc41)[C@@H]23)NCCCc1nc2ccccc2[nH]1 | 4.43 | 4.51 | 4.61 | 4.66 |  |  |
| O=C(OCC1c2ccccc2-c2ccccc21)N1C[C@@H]2CCCN3CCC[C@@H]([C@H]23)[C@H]1CCCc1nc2ccc(C(F)(F)F)cc2n1C(=O)OCC1c2ccccc2-c2ccccc21 | 4.54 | 4.72 | 4.56 | 4.67 |  |  |
| O=C(OCC1c2ccccc2-c2ccccc21)N1C[C@@H]2CCCN3CCC[C@@H]([C@H]23)[C@H]1CCCc1nc2ccc(Cl)cc2[nH]1 | 4.71 | 4.44 | 4.82 | 4.69 |  |  |
| O=S(=O)(c1cccc2ccccc12)N1C[C@@H]2CCCN3CCC[C@@H]([C@H]23)[C@H]1CCCc1nc2ccc(F)cc2n1S(=O)(=O)c1cccc2ccccc12 | 4.70 | 4.21 | 4.91 | 4.40 |  |  |
| O=S(=O)(c1cccc2ccccc12)N1C[C@@H]2CCCN3CCC[C@@H]([C@H]23)[C@H]1CCCc1nc2cc(F)ccc2n1S(=O)(=O)c1cccc2ccccc12 | 5.16 | 4.77 | 5.12 | 4.96 | < 4.19 | 4.86 |
| C[C@]1(c2nc3c(C(N)=O)cccc3[nH]2)CCCN1 [VELIPARIB] | 4.86 | 4.82 | 4.80 | 4.74 |  |  |
| CC(C)(C)c1ccc(S(=O)(=O)N2C[C@@H]3CCCN4CCC[C@@H]([C@H]34)[C@H]2CCCc2nc3ccc(Cl)cc3n2S(=O)(=O)c2ccc(C(C)(C)C)cc2)cc1 | 4.15 | 4.17 | 4.22 | 4.11 |  |  |
| O=C(CCC[C@@H]1[C@H]2CCCN3CCC[C@@H](CN1C(=O)OCC1c4ccccc4-c4ccccc41)[C@@H]23)NCCCc1nc2ccc(C(F)(F)F)cc2[nH]1 | 4.65 | 4.73 | 4.71 | 4.88 |  |  |
| O=S(=O)(c1ccc(Br)cc1)N1C[C@@H]2CCCN3CCC[C@@H]([C@H]23)[C@H]1CCCc1nc2cc(Cl)ccc2n1S(=O)(=O)c1ccc(Br)cc1 | < 4.10 | 4.10 | 4.11 | 4.22 |  |  |
